Measured values published in PubChem BioAssay (NCI).
Values joined by “and” are separate entries in the source; they are usually repeats but may differ in a detail not shown here. Equal values may be shown once.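 Interpolation was linear, between the two tested concentrations surrounding the appropriate level; five concentrations were tested over 48 hours in 96-well plates. GI50 = concentration required for 50% inhibition of growth. The concentration for full growth arrest is given as TGI.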

What was measured:
Assay in all cases: NCI tumour cell line growth inhibition, 48 h
DU-145 prostate = tested on: DU-145 prostate
U251 CNS = tested on: U251 CNS
NCI/ADR-RES ovarian = tested on: NCI/ADR-RES ovarian
UACC-257 melanoma = tested on: UACC-257 melanoma
EKVX NSCLC = tested on: EKVX NSCLC
SK-MEL-28 melanoma = tested on: SK-MEL-28 melanoma
A498 renal = tested on: A498 renal
LOX IMVI melanoma = tested on: LOX IMVI melanoma
OVCAR-5 ovarian = tested on: OVCAR-5 ovarian
NCI-H460 lung = tested on: NCI-H460 lung

Compound `O=C(Nc1cccnc1)c1cccc([N+](=O)[O-])c1` has a GI50 (DU-145 prostate) of over 100 µM, a TGI (DU-145 prostate) of over 100 µM and a GI50 (U251 CNS) of over 100 µM. For the same compound, the TGI (U251 CNS) was over 100 µM, the GI50 (NCI/ADR-RES ovarian) was over 100 µM and the TGI (NCI/ADR-RES ovarian) was over 100 µM. For the same compound, the GI50 (UACC-257 melanoma) was over 100 µM, the TGI (UACC-257 melanoma) was over 100 µM and the GI50 (EKVX NSCLC) was over 100 µM. The TGI (EKVX NSCLC) was over 100 µM, the GI50 (SK-MEL-28 melanoma) was over 100 µM and the TGI (SK-MEL-28 melanoma) was over 100 µM. For the same compound, the GI50 (A498 renal) was over 100 µM, the TGI (A498 renal) was over 100 µM and the GI50 (LOX IMVI melanoma) was over 100 µM. It also gave a TGI (LOX IMVI melanoma) of over 100 µM, a GI50 (OVCAR-5 ovarian) of over 100 µM and a TGI (OVCAR-5 ovarian) of over 100 µM. For the same compound, the GI50 (NCI-H460 lung) was over 100 µM and the TGI (NCI-H460 lung) was over 100 µM.

With `c1ccc2c(Nc3ccc(Oc4ccc(Nc5c6ccccc6nc6ccccc56)cc4)cc3)c3ccccc3nc2c1` the GI50 (DU-145 prostate) was 0.403 µM, the TGI (DU-145 prostate) was 1.25 µM and 0.929 µM and the GI50 (U251 CNS) was 0.0212 µM and 0.145 µM. The TGI (U251 CNS) was 0.0762 µM and 0.276 µM, the TGI (NCI/ADR-RES ovarian) was 0.156 µM and the GI50 (UACC-257 melanoma) was 1.73 µM and 0.245 µM. The TGI (UACC-257 melanoma) was 3.2 µM and 0.524 µM, the GI50 (EKVX NSCLC) was 2.5 µM and the TGI (EKVX NSCLC) was 5.17 µM and 4.63 µM. It also gave a GI50 (SK-MEL-28 melanoma) of 1.44 µM, a TGI (A498 renal) of 3.85 µM and a GI50 (LOX IMVI melanoma) of 0.0148 µM. For the same compound, the TGI (OVCAR-5 ovarian) was 1.06 µM, the GI50 (NCI-H460 lung) was 0.346 µM and the TGI (NCI-H460 lung) was 1.38 µM and 5.93 µM.

`CC(C)=CC(O)C/C(C)=C/CC/C(C)=C/CCC1(C)C(CCCO)/C(=C(/C)C=O)CCC1(C)O` (stereo not given) gave a TGI (DU-145 prostate) of over 100 µM, a TGI (U251 CNS) of over 100 µM and a TGI (NCI/ADR-RES ovarian) of over 100 µM. For the same compound, the TGI (UACC-257 melanoma) was over 100 µM, the TGI (EKVX NSCLC) was over 100 µM and the TGI (SK-MEL-28 melanoma) was over 100 µM. It also gave a TGI (A498 renal) of over 100 µM, a TGI (LOX IMVI melanoma) of over 100 µM and a TGI (OVCAR-5 ovarian) of over 100 µM. It also gave a TGI (NCI-H460 lung) of over 100 µM.

With `O=C(NCC(=O)N1CC[C@H](NC2CCC(O)(c3ccc(-c4ncccn4)cn3)CC2)C1)c1cccc(C(F)(F)F)c1` (stereo not given in full) the GI50 (DU-145 prostate) was over 100 µM, the TGI (DU-145 prostate) was over 100 µM and the GI50 (U251 CNS) was 91.8 µM. The TGI (U251 CNS) was over 100 µM, the GI50 (NCI/ADR-RES ovarian) was over 100 µM and the TGI (NCI/ADR-RES ovarian) was over 100 µM. The GI50 (UACC-257 melanoma) was 40.8 µM, the TGI (UACC-257 melanoma) was over 100 µM and the GI50 (EKVX NSCLC) was 52.7 µM. The TGI (EKVX NSCLC) was over 100 µM, the GI50 (SK-MEL-28 melanoma) was over 100 µM and the TGI (SK-MEL-28 melanoma) was over 100 µM. The GI50 (A498 renal) was 24.5 µM, the TGI (A498 renal) was over 100 µM and the GI50 (LOX IMVI melanoma) was 32.3 µM. The TGI (LOX IMVI melanoma) was over 100 µM, the GI50 (OVCAR-5 ovarian) was over 100 µM and the TGI (OVCAR-5 ovarian) was over 100 µM. The GI50 (NCI-H460 lung) was 86.5 µM and the TGI (NCI-H460 lung) was over 100 µM.

Work on `O=c1[nH]ccc2nc(-c3ccc(CN4CCC(c5nc(-c6ccccn6)n[nH]5)CC4)cc3)c(-c3ccccc3)cc12` yielded a GI50 (DU-145 prostate) of 22.3 µM, a TGI (DU-145 prostate) of over 100 µM and a GI50 (U251 CNS) of 13.2 µM. The TGI (U251 CNS) was over 66.6 µM, the GI50 (NCI/ADR-RES ovarian) was 36.7 µM and the TGI (NCI/ADR-RES ovarian) was over 100 µM. For the same compound, the GI50 (UACC-257 melanoma) was 14.8 µM, the TGI (UACC-257 melanoma) was 51.3 µM and the GI50 (EKVX NSCLC) was 15.8 µM. It also gave a TGI (EKVX NSCLC) of over 100 µM, a GI50 (SK-MEL-28 melanoma) of 16.8 µM and a TGI (SK-MEL-28 melanoma) of over 66.1 µM. For the same compound, the GI50 (A498 renal) was under 0.0345 µM, the TGI (A498 renal) was 0.355 µM and the GI50 (LOX IMVI melanoma) was 19.3 µM. The TGI (LOX IMVI melanoma) was over 94.2 µM, the GI50 (OVCAR-5 ovarian) was 37.8 µM and the TGI (OVCAR-5 ovarian) was over 100 µM. It also gave a GI50 (NCI-H460 lung) of 1.15 µM and a TGI (NCI-H460 lung) of over 100 µM.

`COc1ccc(Cn2cnc3cc(C(=O)Nc4cccc5ccccc45)ccc32)c(OC)c1` gave a GI50 (DU-145 prostate) of 0.0439 µM, a TGI (DU-145 prostate) of 3.36 µM and a GI50 (U251 CNS) of 0.0398 µM. For the same compound, the TGI (U251 CNS) was over 100 µM, the GI50 (NCI/ADR-RES ovarian) was 0.042 µM and the TGI (NCI/ADR-RES ovarian) was over 100 µM. It also gave a GI50 (UACC-257 melanoma) of 39 µM, a TGI (UACC-257 melanoma) of over 100 µM and a GI50 (EKVX NSCLC) of 0.0654 µM. The TGI (EKVX NSCLC) was over 100 µM, the GI50 (SK-MEL-28 melanoma) was 1.63 µM and the TGI (SK-MEL-28 melanoma) was over 100 µM. The GI50 (A498 renal) was 0.0226 µM, the TGI (A498 renal) was 0.0771 µM and the GI50 (LOX IMVI melanoma) was 0.0611 µM. The TGI (LOX IMVI melanoma) was over 100 µM, the GI50 (OVCAR-5 ovarian) was 0.18 µM and the TGI (OVCAR-5 ovarian) was over 100 µM. For the same compound, the GI50 (NCI-H460 lung) was 0.0363 µM and the TGI (NCI-H460 lung) was 1.21 µM.

`COc1cc(C2CC(c3ccc(Nc4ccnc5cc(Cl)ccc45)cc3)=NN2C=O)cc(OC)c1OC` (stereo not given) gave a GI50 (DU-145 prostate) of 6.63 µM, a TGI (DU-145 prostate) of over 100 µM and a GI50 (U251 CNS) of 2.06 µM. For the same compound, the TGI (U251 CNS) was 4.76 µM, the GI50 (NCI/ADR-RES ovarian) was 7.88 µM and the TGI (NCI/ADR-RES ovarian) was over 100 µM. It also gave a GI50 (UACC-257 melanoma) of 2.84 µM, a TGI (UACC-257 melanoma) of 8.28 µM and a GI50 (EKVX NSCLC) of 11.7 µM. For the same compound, the TGI (EKVX NSCLC) was over 100 µM, the GI50 (SK-MEL-28 melanoma) was 2.22 µM and the TGI (SK-MEL-28 melanoma) was 4.81 µM. It also gave a GI50 (A498 renal) of 15.3 µM, a TGI (A498 renal) of 49.5 µM and a GI50 (LOX IMVI melanoma) of 1.89 µM. It also gave a TGI (LOX IMVI melanoma) of 3.85 µM, a GI50 (OVCAR-5 ovarian) of 69.2 µM and a TGI (OVCAR-5 ovarian) of over 100 µM. The GI50 (NCI-H460 lung) was 4.42 µM and the TGI (NCI-H460 lung) was over 100 µM.

`Cn1ccnc1C(=O)/C=C/c1ccc(C(=O)Nc2ccccc2O)cc1` was tested, and the GI50 (DU-145 prostate) was 1.95 µM, the TGI (DU-145 prostate) was 5.23 µM and the GI50 (U251 CNS) was 1.46 µM. For the same compound, the TGI (U251 CNS) was 4.03 µM, the GI50 (NCI/ADR-RES ovarian) was 2.86 µM and the TGI (NCI/ADR-RES ovarian) was 22.6 µM. For the same compound, the GI50 (UACC-257 melanoma) was 2.51 µM, the TGI (UACC-257 melanoma) was 13.3 µM and the GI50 (EKVX NSCLC) was 2.45 µM. For the same compound, the TGI (EKVX NSCLC) was 7.09 µM, the GI50 (SK-MEL-28 melanoma) was 2.11 µM and the TGI (SK-MEL-28 melanoma) was 5.07 µM. For the same compound, the GI50 (A498 renal) was 2.07 µM, the TGI (A498 renal) was 6.18 µM and the GI50 (LOX IMVI melanoma) was 1.38 µM. For the same compound, the TGI (LOX IMVI melanoma) was 3.12 µM, the GI50 (OVCAR-5 ovarian) was 2.39 µM and the TGI (OVCAR-5 ovarian) was 7.09 µM. The GI50 (NCI-H460 lung) was 1.67 µM and the TGI (NCI-H460 lung) was 5.6 µM.

For `CN(C)c1ccc(/C=C/c2ccnc3ccccc23)cc1N`, the TGI (DU-145 prostate) was 30.2 µM, the TGI (U251 CNS) was 40.8 µM and the TGI (NCI/ADR-RES ovarian) was 53.9 µM. The TGI (UACC-257 melanoma) was 7.75 µM, the TGI (EKVX NSCLC) was 22.4 µM and the TGI (SK-MEL-28 melanoma) was 26.3 µM. It also gave a TGI (A498 renal) of 22.3 µM, a TGI (LOX IMVI melanoma) of 32.6 µM and a TGI (OVCAR-5 ovarian) of 31.2 µM. It also gave a TGI (NCI-H460 lung) of 22.3 µM.

Work on `COc1ccc(N(C)c2nc(Cl)nc3ccn(C)c23)cc1` yielded a GI50 (DU-145 prostate) of under 0.01 µM, a TGI (DU-145 prostate) of over 100 µM and a GI50 (U251 CNS) of under 0.01 µM. The TGI (U251 CNS) was over 100 µM, the GI50 (NCI/ADR-RES ovarian) was under 0.01 µM and the TGI (NCI/ADR-RES ovarian) was over 100 µM. The GI50 (UACC-257 melanoma) was over 100 µM, the TGI (UACC-257 melanoma) was over 100 µM and the GI50 (EKVX NSCLC) was under 0.01 µM. It also gave a TGI (EKVX NSCLC) of over 100 µM, a GI50 (SK-MEL-28 melanoma) of 5 µM and a TGI (SK-MEL-28 melanoma) of over 100 µM. It also gave a GI50 (A498 renal) of under 0.01 µM, a TGI (A498 renal) of over 100 µM and a GI50 (LOX IMVI melanoma) of under 0.01 µM. For the same compound, the TGI (LOX IMVI melanoma) was over 100 µM, the GI50 (OVCAR-5 ovarian) was 7.54 µM and the TGI (OVCAR-5 ovarian) was over 100 µM. The GI50 (NCI-H460 lung) was under 0.01 µM and the TGI (NCI-H460 lung) was over 100 µM.
